The nature of data set [1]: Thawing and baking trials with puff pastry in a microwave oven. Conditions: for ΔT (temperature difference between crust temperature and crumb temperature): 2 parts by weight additive, puff pastry dough pieces; for Microwave activity: assessment scale from ΔT, puff pastry doughs. As for the experimental part: A puff pastry from Veripan was used as the basic recipe.
2 parts by weight of microwave absorber were further added to the basic recipe.
Wheat flour, inverted sugar, emulsifier and optionally microwave absorber were put into a mixing container and mixed. The water and 20% of the vegetable fat were added and kneaded for 3 minutes at a low stage and for 5 minutes at a medium stage with a spiral kneader. The dough temperature was monitored. The target temperature was 18° C. After that the remaining vegetable fat was beaten into the dough. The dough was then folded at intervals each of 30 minutes in 4 working steps, more specifically 2 single and 2 double turns. They give by calculation 144 fat layers (margarine), divided into very thin dough and fat layers. Before processing the dough was stored in a cooled condition for 12 hours.
Unbaked puff pastry dough roundels without filling and pre-baked puff pastry dough pockets (hot pockets) with a tomato sauce filling were respectively subjected to microwave radiation as deep-frozen dough pieces in a microwave oven from Panasonic (see Example 2) for a predetermined period and with a predetermined microwave power. After a […] standing time the temperature of the dough piece was measured by means of a thermal imaging camera (Fluke Ti20) and evaluated.
Measurement value 1 (M1)=averaged crust temperature outside
Measurement value 2 (M2)=averaged crumb temperature in the interior of the dough piece.
Puff pastry dough roundel (PPD-RO): 440 watts; 200 seconds
Puff pastry dough hot pockets (PPD-HP): 600 watts; 300 seconds
Table 3 hereinafter reproduces the additives used, the temperature measurement values M1 and M2 and the corresponding temperature difference (ΔT) between crust temperature and crumb temperature of the dough piece.
Assessment of Microwave Activity in Puff Pastry Doughs 1: ΔT=>20° C.=very good 2: ΔT=15 to <20° C.=good 3: ΔT=<15° C.=no additional additive

Data set [2] in a line: Thawing and baking trials with yeast-raised wheat frozen doughs in a microwave oven. Conditions: yeast-raised wheat frozen dough; for ΔT (temperature difference between crust temperature and crumb temperature): 2 parts by weight additive, 600 watts, 120 seconds; for Microwave activity: assessment scale from ΔT. As for the experimental part: Dough Composition (Basic Recipe):
In addition 2 parts by weight of microwave absorber were added to the basic recipe.
• Mixing and kneading time: 3+2 minutes (the latter in a Stephan mixer) • Dough standing time: 20 minutes • Dough piece weight: 200 g • Cooking time of the dough pieces: 20 minutes • Freezing time: about 4 hours • Deep freeze storage time: about 2 days Thawing and Baking Trials:
The deep-frozen dough pieces were exposed to microwave radiation in a microwave oven from Panasonic (model: NN-GD560M—inverter microwave) for a predetermined period of 120 seconds and with a predetermined microwave power of 600 watts (according to the device indication). After 2 minutes of standing time the temperature of the crust and the crumb was measured by means of an infrared temperature sensor at various measurement points on the dough piece.
Measurement value 1 (M1)=average crust temperature outside
Measurement value 2 (M2)=average crumb temperature in the interior of the dough piece.

Data set [3] in a line: Pore volume by nitrogen gas adsorption (BJH method, BELSORP-mini II). Conditions: total pore volume Vp, nitrogen adsorption at 77.3 K. The class given is physicochemical. An excerpt: Determining the Pore Volume
The pore volume in accordance with the present invention is characterised by means of gas adsorption. The recording of physisorption isotherms (adsorption and desorption isotherms) of inert gas molecules at low temperatures is routinely used for determining solids parameters.
The BJH method provides an algorithm for the calculation of pore width distribution from nitrogen adsorption data on the assumption of a cylindrical pore geometry. In that respect consideration is given to the change in the adsorbed volume in the pores in dependence on the pore radius, wherein the pore radius distribution function is related as a relative value to the total pore volume. […] It is assumed that the entire pore system is filled with a capillary condensate.

Data set [4] in a line: Baking trials with ready-to-eat baking mixture (lemon cake) in a microwave oven. Conditions: for ΔT (temperature difference between crust temperature and crumb temperature): 2 parts by weight additive, 600 watts, 140 seconds; for Microwave activity: assessment scale from ΔT. Here is the method: A ready-to-eat baking mixture for lemon cakes from […] was used as the basic recipe. […] Whole egg and sugar were put into a mixing container and mixed. The powder mixture of the composition (wheat flour, cooking salt and so forth) was slowly mixed in. Vegetable oil, flavouring substances and alcohol were then slowly added and mixing was effected for 12 minutes. After that baking raising agent was added and mixed at a medium stage for a further 2 minutes. After that the microwave absorber was mixed in, the mixer was switched off, and the material was tipped out and stored cool.

Data set [5] in a line: Solubility of the additive in water at 20° C. It counts as physicochemical.

In the case of `O=P([O-])(O)OP(=O)([O-])O.[Ca+2]` [CAPP, Acid calcium pyrophosphate], the “ΔT (temperature difference between crust temperature and crumb temperature)” value in data set [1] was found to be 26.1 °C; in data set [2], 50.0 °C; in data set [4], 21.2 °C. Moreover, the figures for the Microwave activity in data set [1], in data set [2] and in data set [4] were 1 (ΔT=>20° C.=very good), 1 (ΔT=>40° C.=very good) and 1 (ΔT=>20° C.=very good), respectively. The “Pore Volume” value in data set [3] is reported as 3.6 10^−3 cm^3/g.
Take `O=P([O-])([O-])[O-].[Fe+3]` [FeOP, Iron-III-orthophosphate]: the entries for the “ΔT (temperature difference between crust temperature and crumb temperature)” value in data set [1], in data set [2] and in data set [4] were 15.1 °C, 47.0 °C and 15.9 °C, respectively. Besides, the figures for the Microwave activity in data set [1], in data set [2] and in data set [4] were 2 (ΔT=15 to <20° C.=good), 1 (ΔT=>40° C.=very good) and 2 (ΔT=15 to <20° C.=good), respectively. Besides, in data set [3], the “Pore Volume” value is 19 10^−3 cm^3/g.
As for `O=P([O-])([O-])OP(=O)([O-])[O-].O=P([O-])([O-])OP(=O)([O-])[O-].O=P([O-])([O-])OP(=O)([O-])[O-].[Fe+3].[Fe+3].[Fe+3].[Fe+3]` [FePP, Iron-III-pyrophosphate], the “ΔT (temperature difference between crust temperature and crumb temperature)” value in data set [1] came out at 16.9 °C; in data set [2], 42.6 °C; in data set [4], 26.4 °C. Besides, the Microwave activity in data set [1] is 2 (ΔT=15 to <20° C.=good); in data set [2], 1 (ΔT=>40° C.=very good); in data set [4], 1 (ΔT=>20° C.=very good). In addition, the “Pore Volume” value in data set [3] is 30 10^−3 cm^3/g.
Broadly, the Solubility is the dissolved amount per volume that the medium holds. As for `O=P([O-])([O-])OP(=O)([O-])OP(=O)([O-])[O-].[K+].[K+].[K+].[K+].[K+]` [KTPP(V), Potassium tripolyphosphate, reference compound], in data set [2], the “ΔT (temperature difference between crust temperature and crumb temperature)” value came to 12.3 °C; the Microwave activity is on record as 3 (ΔT=<25° C.=no additional activity). For the same compound, the “Pore Volume” value in data set [3] is reported as 1.1 10^−3 cm^3/g. In addition, in data set [5], the Solubility was above 200 mg/mL.
As to `O=P([O-])([O-])OP(=O)([O-])[O-].[Mg+2].[Mg+2]` [MgPP, Magnesium pyrophosphate], the “ΔT (temperature difference between crust temperature and crumb temperature)” value in data set [1] is 15.2 °C; in data set [2], 45.8 °C; in data set [4], 19.1 °C. The Microwave activity in data set [1] is recorded as 2 (ΔT=15 to <20° C.=good); in data set [2], 1 (ΔT=>40° C.=very good); in data set [4] it was 2 (ΔT=15 to <20° C.=good). Moreover, the “Pore Volume” value in data set [3] was 7.1 10^−3 cm^3/g.
With `O=P(O)(O)OP(=O)(O)OP(=O)(O)O` [STPP(V), Sodium tripolyphosphate, reference compound], in data set [2], the “ΔT (temperature difference between crust temperature and crumb temperature)” value turned out to be 12.6 °C; the Microwave activity is reported as 3 (ΔT=<25° C.=no additional activity). Further, the “Pore Volume” value in data set [3] is given as 1.1 10^−3 cm^3/g. The compound further gave a Solubility in data set [5] of 145 mg/mL.
Regarding Magnesium metaphosphate [MMP], in data set [2], the “ΔT (temperature difference between crust temperature and crumb temperature)” value stood at 38.4 °C; the Microwave activity is 2 (ΔT=25 to 40° C.=good). Besides, the “Pore Volume” value in data set [3] is 5.1 10^−3 cm^3/g. This compound also had a Solubility in data set [5] below 0.1 mg/mL.
As to “Sodium aluminium phosphate 1:3:8 NaH14Al3(PO4)8 [SALP 1]”, in data set [2], the “ΔT (temperature difference between crust temperature and crumb temperature)” value is 29.6 °C; the Microwave activity is listed as 2 (ΔT=25 to 40° C.=good). Besides, in data set [3], the “Pore Volume” value was 13 10^−3 cm^3/g. In data set [5], this compound had a Solubility of 15 mg/mL.
The like results for “Sodium aluminium phosphate 3:2:8 Na3H15Al2*PO4)8 [SALP 2]” were, in that order, 20.5 °C, 2 (ΔT=25 to 40° C.=good), 6.4 10^−3 cm^3/g and 15 mg/mL.

Values taken from patent US10231463B2, “Food mass suitable for microwaving” (Chemische Fabrik Budenheim KG, priority 2013, dated 2019).
